# Source: patent publication US20210038566A1, “USE OF MODULATORS OF NEET PROTEINS FOR THE TREATMENT OF INFECTION” (ENYO PHARMA, priority 2018, published 2021)
# System: H1N1 (influenza A/New Caledonia/20/99)
# Test: microbe, parasite or virus in culture
# Format: cell-based
# Settings: H1N1, A549, 48 h, read-out: IC50 (antiviral effect, Influenza replication)
row,SMILES,IC50
1,"CCOC(=O)N1CCC(NC(=S)Nc2cc(Cl)cc(Cl)c2)CC1 [Compound T01001, ethyl-4-(3-(3,5-dichlorophenyl)thioureido)piperidine-1-carboxylate]",18 µM
2,CCc1ccc(CCOc2ccc(CC3SC(=O)NC3=O)cc2)nc1 (stereo not drawn) [Pioglitazone],38 µM
3,COc1ccc(C(=O)Nc2sc3c(c2C(=O)O)CCC(C)(C)C3)cc1OC [Compound #18],0.05 µM
